Test results reported in PubChem BioAssay AID342 (DTP/NCI, 2004).
Values joined by “and” are separate entries in the source; they are usually repeats but may differ in a detail not shown here. Equal values may be shown once.

Test system: Swiss mice, Sarcoma 180 sc, mean tumor weight T/C
Assay: NCI In Vivo Anticancer Drug Screen. Data for tumor model Sarcoma 180 (subcutaneous) in Swiss mice
Conditions: endpoint: mean tumor weight, higher = larger tumour
Summary of the method: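 Antitumor activity is assessed in mice with transplantable tumors. Treated (T) and vehicle control (C) groups are compared on survival or tumor size.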

SMILES: CC(=O)[C@H]1[C@H](C)C[C@H]2[C@@H]3CCC4=CC(=O)CC[C@]4(C)[C@@]3(F)[C@@H](O)C[C@@]21C
- T/C (dose: 3.0 mg/kg/injection, schedule: Q01DX007 (sc), vehicle: steriod suspending solution): 87 % of control
- T/C (dose: 6.1 mg/kg/injection, schedule: Q01DX007 (sc), vehicle: steriod suspending solution): 63 % of control
- T/C (dose: 12.5 mg/kg/injection, schedule: Q01DX007 (sc), vehicle: steriod suspending solution): 47 % of control
- T/C (dose: 25.0 mg/kg/injection, schedule: Q01DX007 (sc), vehicle: steriod suspending solution): 44 % of control
- T/C (dose: 47.0 mg/kg/injection, schedule: Q01DX007 (sc), vehicle: steriod suspending solution): 13 % of control
- T/C (dose: 94.0 mg/kg/injection, schedule: Q01DX007 (sc), vehicle: steriod suspending solution): 26 % of control
- T/C (dose: 187.5 mg/kg/injection, schedule: Q#A X014 (sc), vehicle: steriod suspending solution): 29 % of control and 31 % of control and 33 % of control
- T/C (dose: 281.25 mg/kg/injection, schedule: Q#A X014 (sc), vehicle: steriod suspending solution): 22 % of control and 28 % of control and 42 % of control
- T/C (dose: 500.0 mg/kg/injection, schedule: Q01DX007 (sc), vehicle: steriod suspending solution): 25 % of control
- T/C (dose: 562.0 mg/kg/injection, schedule: Q01DX007 (sc), vehicle: steriod suspending solution): 36 % of control
- T/C (dose: 600.0 mg/kg/injection, schedule: Q01DX007 (sc), vehicle: steriod suspending solution): 20 % of control
- T/C (dose: 700.0 mg/kg/injection, schedule: Q01DX007 (sc), vehicle: steriod suspending solution): 28 % of control
- T/C (dose: 800.0 mg/kg/injection, schedule: Q01DX007 (sc), vehicle: steriod suspending solution): 16 % of control
- T/C (dose: 843.0 mg/kg/injection, schedule: Q01DX007 (sc), vehicle: steriod suspending solution): 21 % of control
- T/C (dose: 1265.0 mg/kg/injection, schedule: Q01DX007 (sc), vehicle: steriod suspending solution): 29 % of control
- T/C (dose: 1890.0 mg/kg/injection, schedule: Q01DX007 (sc), vehicle: steriod suspending solution): 24 % of control

SMILES: CC(C)OC(=O)C1(N)CCCC1
- T/C (dose: 33.0 mg/kg/injection, schedule: Q#A X014 (ip), vehicle: saline): 61 % of control
- T/C (dose: 50.0 mg/kg/injection, schedule: Q#A X014 (ip), vehicle: saline): 67 % of control
- T/C (dose: 75.0 mg/kg/injection, schedule: Q#A X014 (ip), vehicle: saline): 49 % of control
- T/C (dose: 112.5 mg/kg/injection, schedule: Q#A X014 (ip), vehicle: saline): 20 % of control

SMILES: CC(=O)OC/N=[N+](/C)[O-]
- T/C (dose: 4.68 mg/kg/injection, schedule: Q01DX007 (ip), vehicle: saline): 84 % of control
- T/C (dose: 9.37 mg/kg/injection, schedule: Q01DX007 (ip), vehicle: saline): 54 % of control

SMILES: CN1CCC23c4c5ccc(O)c4OC2C(O)C=CC3C1C5 (configuration not stated)
- T/C (dose: 62.0 mg/kg/injection, schedule: Q01DX007 (ip), vehicle: saline): 90 % of control
- T/C (dose: 125.0 mg/kg/injection, schedule: Q01DX007 (ip), vehicle: saline): 99 % of control
- T/C (dose: 250.0 mg/kg/injection, schedule: Q01DX007 (ip), vehicle: saline): 48 % of control

SMILES: O=C1C=CC(=O)N1c1ccc2c(c1)C(Br)c1ccccc1-2 (configuration not stated)
- T/C (dose: 3.0 mg/kg/injection, schedule: Q#A X014 (ip), vehicle: carboxymethylcellulose (CMC)): 97 % of control
- T/C (dose: 5.5 mg/kg/injection, schedule: Q#A X014 (ip), vehicle: carboxymethylcellulose (CMC)): 73 % of control
- T/C (dose: 11.0 mg/kg/injection, schedule: Q#A X014 (ip), vehicle: carboxymethylcellulose (CMC)): 109 % of control
- T/C (dose: 11.0 mg/kg/injection, schedule: Q#A X014 (ip), vehicle: methylcellulose (MC)): 45 % of control and 52 % of control
- T/C (dose: 16.5 mg/kg/injection, schedule: Q#A X014 (ip), vehicle: carboxymethylcellulose (CMC)): 102 % of control
- T/C (dose: 16.5 mg/kg/injection, schedule: Q#A X014 (ip), vehicle: methylcellulose (MC)): 32 % of control and 50 % of control
- T/C (dose: 25.0 mg/kg/injection, schedule: Q#A X014 (ip), vehicle: carboxymethylcellulose (CMC)): 99 % of control
- T/C (dose: 25.0 mg/kg/injection, schedule: Q#A X014 (ip), vehicle: methylcellulose (MC)): 40 % of control
- T/C (dose: 37.5 mg/kg/injection, schedule: Q#A X014 (ip), vehicle: carboxymethylcellulose (CMC)): 89 % of control

SMILES: CSCS(=O)C[C@H](CO)NC(=O)/C=C/c1c(C)[nH]c(=O)[nH]c1=O (some centres not stated)
- T/C (dose: 0.03 mg/kg/injection, schedule: Q#A X014 (ip), vehicle: saline): 64 % of control
- T/C (dose: 0.06 mg/kg/injection, schedule: Q01DX007 (ip), vehicle: saline): 81 % of control
- T/C (dose: 0.06 mg/kg/injection, schedule: Q01DX007 (sc), vehicle: saline): 107 % of control
- T/C (dose: 0.06 mg/kg/injection, schedule: Q#A X014 (ip), vehicle: saline): 54 % of control
- T/C (dose: 0.12 mg/kg/injection, schedule: Q#A X014 (ip), vehicle: saline): 44 % of control
- T/C (dose: 0.13 mg/kg/injection, schedule: Q01DX007 (ip), vehicle: saline): 50 % of control
- T/C (dose: 0.13 mg/kg/injection, schedule: Q01DX007 (sc), vehicle: saline): 81 % of control
- T/C (dose: 0.19 mg/kg/injection, schedule: Q03DX003 (ip), vehicle: saline): 88 % of control
- T/C (dose: 0.25 mg/kg/injection, schedule: Q01DX007 (ip), vehicle: saline): 39 % of control
- T/C (dose: 0.25 mg/kg/injection, schedule: Q01DX007 (iv), vehicle: saline): 87 % of control
- T/C (dose: 0.25 mg/kg/injection, schedule: Q01DX007 (oral), vehicle: saline): 97 % of control
- T/C (dose: 0.25 mg/kg/injection, schedule: Q01DX007 (sc), vehicle: saline): 78 % of control
- T/C (dose: 0.25 mg/kg/injection, schedule: Q#A X014 (ip), vehicle: saline): 42 % of control
- T/C (dose: 0.38 mg/kg/injection, schedule: Q03DX003 (ip), vehicle: saline): 76 % of control
- T/C (dose: 0.4 mg/kg/injection, schedule: Q#A X014 (ip), vehicle: carboxymethylcellulose (CMC)): 58 % of control
- T/C (dose: 0.5 mg/kg/injection, schedule: Q01DX007 (ip), vehicle: saline): 32 % of control
- T/C (dose: 0.5 mg/kg/injection, schedule: Q01DX007 (iv), vehicle: saline): 86 % of control
- T/C (dose: 0.5 mg/kg/injection, schedule: Q01DX007 (oral), vehicle: saline): 106 % of control
- T/C (dose: 0.5 mg/kg/injection, schedule: Q01DX007 (sc), vehicle: saline): 17 % of control
- T/C (dose: 0.62 mg/kg/injection, schedule: Q#A X014 (ip), vehicle: carboxymethylcellulose (CMC)): 27 % of control
- T/C (dose: 0.75 mg/kg/injection, schedule: Q#A X014 (ip), vehicle: carboxymethylcellulose (CMC)): 20 % of control
- T/C (dose: 1.0 mg/kg/injection, schedule: Q01DX007 (iv), vehicle: saline): 58 % of control
- T/C (dose: 1.0 mg/kg/injection, schedule: Q01DX007 (oral), vehicle: saline): 59 % of control
- T/C (dose: 1.5 mg/kg/injection, schedule: Q03DX003 (ip), vehicle: saline): 89 % of control
- T/C (dose: 2.0 mg/kg/injection, schedule: Q01DX007 (oral), vehicle: saline): 99 % of control
- T/C (dose: 62.5 mg/kg/injection, schedule: Q#A X014 (ip), vehicle: carboxymethylcellulose (CMC)): 79 % of control
- T/C (dose: 125.0 mg/kg/injection, schedule: Q#A X014 (ip), vehicle: carboxymethylcellulose (CMC)): 74 % of control

SMILES: CC(=O)OCC(=O)[C@@]1(O)CC[C@H]2[C@@H]3CCC4=CC(=O)CC[C@]4(C)[C@H]3[C@@H](O)C[C@@]21C
- T/C (dose: 12.5 mg/kg/injection, schedule: Q#A X014 (ip), vehicle: steriod suspending solution): 70 % of control
- T/C (dose: 25.0 mg/kg/injection, schedule: Q#A X014 (ip), vehicle: steriod suspending solution): 88 % of control
- T/C (dose: 50.0 mg/kg/injection, schedule: Q#A X014 (ip), vehicle: steriod suspending solution): 57 % of control

SMILES: c1ccc(N2N=C3N(c4ccccc4)C2N3c2ccccc2)cc1
- T/C (dose: 15.0 mg/kg/injection, schedule: Q01DX007 (ip), vehicle: other): 114 % of control
- T/C (dose: 31.0 mg/kg/injection, schedule: Q01DX007 (ip), vehicle: other): 72 % of control

SMILES: C[C@]1(O)CC[C@H]2[C@@H]3CCc4cc(O)ccc4[C@H]3CC[C@@]21C
- T/C (dose: 0.5 mg/kg/injection, schedule: Q#A X014 (sc), vehicle: steriod suspending solution): 115 % of control
- T/C (dose: 5.0 mg/kg/injection, schedule: Q#A X014 (sc), vehicle: steriod suspending solution): 103 % of control
- T/C (dose: 50.0 mg/kg/injection, schedule: Q#A X014 (sc), vehicle: steriod suspending solution): 74 % of control

SMILES: C[C@@H](N)[C@@H](O)c1ccccc1
- T/C (dose: 3.13 mg/kg/injection, schedule: Q01DX007 (ip), vehicle: saline): 89 % of control
- T/C (dose: 6.25 mg/kg/injection, schedule: Q01DX007 (ip), vehicle: saline): 91 % of control
- T/C (dose: 12.5 mg/kg/injection, schedule: Q01DX007 (ip), vehicle: saline): 51 % of control
- T/C (dose: 25.0 mg/kg/injection, schedule: Q01DX007 (ip), vehicle: saline): 52 % of control

SMILES: O=c1[nH]c(Cl)ncc1F
- T/C (dose: 22.0 mg/kg/injection, schedule: Q01DX007 (ip), vehicle: saline): 36 % of control
- T/C (dose: 33.0 mg/kg/injection, schedule: Q01DX007 (ip), vehicle: saline): 46 % of control
- T/C (dose: 50.0 mg/kg/injection, schedule: Q01DX007 (ip), vehicle: saline): 29 % of control
- T/C (dose: 75.0 mg/kg/injection, schedule: Q01DX007 (ip), vehicle: saline): 5 % of control
